For the first series, the system named is SARS-CoV-2. The series is described as follows: microbe, parasite or virus in culture. In kind it is functional, organism-based, Chlorocebus sabaeus, Vero C1008. The conditions noted are these: Severe acute respiratory syndrome coronavirus 2, Vero C1008, 48 h; read-out: IC50.
`COc1cc2c3cc1Oc1cc(ccc1O)C[C@@H]1c4c(cc(OC)c(O)c4Oc4ccc(cc4)C[C@H]3N(C)CC2)CCN1C`: the IC50 was about 5.37 µM.
On the same count and under the same terms, the result for `O=C(NO)c1ccc(C2=Nc3ccccc3Oc3ccccc32)cc1` reads over 100 µM; that for `O=C1NCN(c2ccccc2)C12CCN(CCCC(c1ccc(F)cc1)c1ccc(F)cc1)CC2`, over 100 µM; that for `C=C1CC[C@@H]2[C@](C)(CO)[C@H](O)CC[C@@]2(C)[C@@H]1C/C=C1/C(=O)OC[C@H]1O` [ANDROGRAPHOLIDE], over 100 µM.
On to `CCC(CC)COC(=O)[C@H](C)N[P@](=O)(OC[C@H]1O[C@@](C#N)(c2ccc3c(N)ncnn23)[C@H](O)[C@@H]1O)Oc1ccccc1`, for which the IC50 is about 2.6 µM.
The same measure, in the same setting: the result for `CCn1cc(-c2ccnc3[nH]c(-c4cccc(CN(C)C)c4)cc23)c(-c2ccc(NC(=O)N(C)C)cc2)n1` [GSK-1070916] reads over 100 µM; that for `CN(C)CC/C=C1\c2ccccc2CSc2ccccc21` [DOTHIEPIN], over 25.1 µM.
The same measure, in the same setting: the result for `CCCCCCC(C)(C)c1cc(O)c2c(c1)OC(C)(C)[C@@H]1CC=C(C(=O)O)C[C@@H]21` [LENABASUM] reads over 100 µM.
`Cc1cc(O[C@@H](CCC(F)(F)F)c2ccc(C(=O)NCCC(=O)O)cc2)cc(C)c1-c1ccc(C(C)(C)C)cc1` [ADOMEGLIVANT]: the IC50 was over 6.31 µM.
As for `CN1CCN(CCCN2c3ccccc3Sc3ccc(C(F)(F)F)cc32)CC1` [TRIFLUOPERAZINE], the IC50 is over 100 µM.
`CN1CCC(c2cc3cc(Cl)ccc3o2)CC1`: the IC50 was over 100 µM.

Staying with this series, now noted: Severe acute respiratory syndrome coronavirus 2, Vero C1008, 48 h; read-out: pIC50 (converted).
For `COc1cc2c3cc1Oc1cc(ccc1O)C[C@@H]1c4c(cc(OC)c(O)c4Oc4ccc(cc4)C[C@H]3N(C)CC2)CCN1C`, the IC50 is about 5.37 µM.
Still for that read-out and setting: under `O=C(NO)c1ccc(C2=Nc3ccccc3Oc3ccccc32)cc1` stands over 100 µM; under `O=C1NCN(c2ccccc2)C12CCN(CCCC(c1ccc(F)cc1)c1ccc(F)cc1)CC2`, over 100 µM.
In the case of `C=C1CC[C@@H]2[C@](C)(CO)[C@H](O)CC[C@@]2(C)[C@@H]1C/C=C1/C(=O)OC[C@H]1O` [ANDROGRAPHOLIDE], the IC50 is over 100 µM.
Same read-out and setting: under `CCC(CC)COC(=O)[C@H](C)N[P@](=O)(OC[C@H]1O[C@@](C#N)(c2ccc3c(N)ncnn23)[C@H](O)[C@@H]1O)Oc1ccccc1` stands about 2.57 µM.
Same read-out and setting: the result for `CCn1cc(-c2ccnc3[nH]c(-c4cccc(CN(C)C)c4)cc23)c(-c2ccc(NC(=O)N(C)C)cc2)n1` [GSK-1070916] reads over 100 µM; that for `CN(C)CC/C=C1\c2ccccc2CSc2ccccc21` [DOTHIEPIN], over 25.1 µM; that for `CCCCCCC(C)(C)c1cc(O)c2c(c1)OC(C)(C)[C@@H]1CC=C(C(=O)O)C[C@@H]21` [LENABASUM], over 100 µM.
The same measure, in the same setting: the result for `Cc1cc(O[C@@H](CCC(F)(F)F)c2ccc(C(=O)NCCC(=O)O)cc2)cc(C)c1-c1ccc(C(C)(C)C)cc1` [ADOMEGLIVANT] reads over 6.31 µM.
In the case of `CN1CCN(CCCN2c3ccccc3Sc3ccc(C(F)(F)F)cc32)CC1` [TRIFLUOPERAZINE], the IC50 is over 100 µM.
For the compound `CN1CCC(c2cc3cc(Cl)ccc3o2)CC1`, the IC50 was over 100 µM.

Test system in the next series: not listed separately
Description: in vitro. The conditions noted are these: chlorocebus sabaeus, Vero E6 (Vero C1008) cells, CC50.
Broadly, the CC50 is the concentration that lowers cell viability or growth by half. Low values mean greater toxicity to the cells, high ones lower toxicity to the cells. Regarding `COc1cc2c3cc1Oc1cc(ccc1O)C[C@@H]1c4c(cc(OC)c(O)c4Oc4ccc(cc4)C[C@H]3N(C)CC2)CCN1C`, it took 11.5 µM to reach half-maximal cytotoxicity (CC50 at 48 h).
The same measure, in the same setting: the result for `O=C(NO)c1ccc(C2=Nc3ccccc3Oc3ccccc32)cc1` reads 1.55 µM; that for `O=C1NCN(c2ccccc2)C12CCN(CCCC(c1ccc(F)cc1)c1ccc(F)cc1)CC2`, 7 µM; that for `C=C1CC[C@@H]2[C@](C)(CO)[C@H](O)CC[C@@]2(C)[C@@H]1C/C=C1/C(=O)OC[C@H]1O` [ANDROGRAPHOLIDE], about 21.6 µM.
Still for that read-out and setting: the result for `CCC(CC)COC(=O)[C@H](C)N[P@](=O)(OC[C@H]1O[C@@](C#N)(c2ccc3c(N)ncnn23)[C@H](O)[C@@H]1O)Oc1ccccc1` reads 95.5 µM; that for `CCn1cc(-c2ccnc3[nH]c(-c4cccc(CN(C)C)c4)cc23)c(-c2ccc(NC(=O)N(C)C)cc2)n1` [GSK-1070916], 9.33 µM.
`CN(C)CC/C=C1\c2ccccc2CSc2ccccc21` [DOTHIEPIN] had a CC50 at 48 h of 20 µM.
`CCCCCCC(C)(C)c1cc(O)c2c(c1)OC(C)(C)[C@@H]1CC=C(C(=O)O)C[C@@H]21` [LENABASUM] had a CC50 at 48 h of about 21.4 µM.
As for `Cc1cc(O[C@@H](CCC(F)(F)F)c2ccc(C(=O)NCCC(=O)O)cc2)cc(C)c1-c1ccc(C(C)(C)C)cc1` [ADOMEGLIVANT], the CC50 at 48 h was about 10.4 µM.
Compound `CN1CCN(CCCN2c3ccccc3Sc3ccc(C(F)(F)F)cc32)CC1` [TRIFLUOPERAZINE] returned a CC50 at 48 h of 7.94 µM.
The same measure, in the same setting: the result for `CN1CCC(c2cc3cc(Cl)ccc3o2)CC1` reads 34.7 µM.

The series is the same for the next values; noted with them: chlorocebus sabaeus, Vero E6 (Vero C1008) cells, pCC50.
With `COc1cc2c3cc1Oc1cc(ccc1O)C[C@@H]1c4c(cc(OC)c(O)c4Oc4ccc(cc4)C[C@H]3N(C)CC2)CCN1C`, the CC50 at 48 h is 11.5 µM.
For `O=C(NO)c1ccc(C2=Nc3ccccc3Oc3ccccc32)cc1`, the CC50 at 48 h was 1.55 µM.
`O=C1NCN(c2ccccc2)C12CCN(CCCC(c1ccc(F)cc1)c1ccc(F)cc1)CC2` had a CC50 at 48 h of 6.92 µM.
The same measure, in the same setting: under `C=C1CC[C@@H]2[C@](C)(CO)[C@H](O)CC[C@@]2(C)[C@@H]1C/C=C1/C(=O)OC[C@H]1O` [ANDROGRAPHOLIDE] stands about 21.4 µM; under `CCC(CC)COC(=O)[C@H](C)N[P@](=O)(OC[C@H]1O[C@@](C#N)(c2ccc3c(N)ncnn23)[C@H](O)[C@@H]1O)Oc1ccccc1`, 95.5 µM.
Compound `CCn1cc(-c2ccnc3[nH]c(-c4cccc(CN(C)C)c4)cc23)c(-c2ccc(NC(=O)N(C)C)cc2)n1` [GSK-1070916] showed a CC50 at 48 h of 9.33 µM.
`CN(C)CC/C=C1\c2ccccc2CSc2ccccc21` [DOTHIEPIN] had a CC50 at 48 h of 20 µM.
The same measure, in the same setting: under `CCCCCCC(C)(C)c1cc(O)c2c(c1)OC(C)(C)[C@@H]1CC=C(C(=O)O)C[C@@H]21` [LENABASUM] stands about 21.4 µM.
With `Cc1cc(O[C@@H](CCC(F)(F)F)c2ccc(C(=O)NCCC(=O)O)cc2)cc(C)c1-c1ccc(C(C)(C)C)cc1` [ADOMEGLIVANT], the CC50 at 48 h is about 10.2 µM.
`CN1CCN(CCCN2c3ccccc3Sc3ccc(C(F)(F)F)cc32)CC1` [TRIFLUOPERAZINE] showed a CC50 at 48 h of 7.94 µM.
With `CN1CCC(c2cc3cc(Cl)ccc3o2)CC1`, half-maximal cytotoxicity (CC50 at 48 h) was put at 34.7 µM.

The subject of another series is SARS-CoV-2. Description: microbe, parasite or virus in culture. Particulars: Severe acute respiratory syndrome coronavirus 2, Vero C1008, 48 h.
On to `COc1cc2c3cc1Oc1cc(ccc1O)C[C@@H]1c4c(cc(OC)c(O)c4Oc4ccc(cc4)C[C@H]3N(C)CC2)CCN1C`, for which the IC50 was over 10 µM.
`O=C(NO)c1ccc(C2=Nc3ccccc3Oc3ccccc32)cc1` had an IC50 of over 100 µM.
Still for that read-out and setting: the result for `O=C1NCN(c2ccccc2)C12CCN(CCCC(c1ccc(F)cc1)c1ccc(F)cc1)CC2` reads over 100 µM; that for `C=C1CC[C@@H]2[C@](C)(CO)[C@H](O)CC[C@@]2(C)[C@@H]1C/C=C1/C(=O)OC[C@H]1O` [ANDROGRAPHOLIDE], over 100 µM.
The same measure, in the same setting: under `CCC(CC)COC(=O)[C@H](C)N[P@](=O)(OC[C@H]1O[C@@](C#N)(c2ccc3c(N)ncnn23)[C@H](O)[C@@H]1O)Oc1ccccc1` stands about 4.64 µM.
On the same count and under the same terms, under `CCn1cc(-c2ccnc3[nH]c(-c4cccc(CN(C)C)c4)cc23)c(-c2ccc(NC(=O)N(C)C)cc2)n1` [GSK-1070916] stands over 100 µM; under `CN(C)CC/C=C1\c2ccccc2CSc2ccccc21` [DOTHIEPIN], 16.6 µM.
In turn, `CCCCCCC(C)(C)c1cc(O)c2c(c1)OC(C)(C)[C@@H]1CC=C(C(=O)O)C[C@@H]21` [LENABASUM] returned an IC50 of over 100 µM.
Still for that read-out and setting: under `Cc1cc(O[C@@H](CCC(F)(F)F)c2ccc(C(=O)NCCC(=O)O)cc2)cc(C)c1-c1ccc(C(C)(C)C)cc1` [ADOMEGLIVANT] stands over 10 µM; under `CN1CCN(CCCN2c3ccccc3Sc3ccc(C(F)(F)F)cc32)CC1` [TRIFLUOPERAZINE], 6.46 µM; under `CN1CCC(c2cc3cc(Cl)ccc3o2)CC1`, 17.2 µM.

Staying with this series, now noted: Severe acute respiratory syndrome coronavirus 2, Vero C1008, 48 h, read-out: pIC50 (converted).
Consider `COc1cc2c3cc1Oc1cc(ccc1O)C[C@@H]1c4c(cc(OC)c(O)c4Oc4ccc(cc4)C[C@H]3N(C)CC2)CCN1C`, for which the IC50 was over 10 µM.
Turning to `O=C(NO)c1ccc(C2=Nc3ccccc3Oc3ccccc32)cc1`, the IC50 is over 100 µM.
On the same count and under the same terms, the result for `O=C1NCN(c2ccccc2)C12CCN(CCCC(c1ccc(F)cc1)c1ccc(F)cc1)CC2` reads over 100 µM; that for `C=C1CC[C@@H]2[C@](C)(CO)[C@H](O)CC[C@@]2(C)[C@@H]1C/C=C1/C(=O)OC[C@H]1O` [ANDROGRAPHOLIDE], over 100 µM; that for `CCC(CC)COC(=O)[C@H](C)N[P@](=O)(OC[C@H]1O[C@@](C#N)(c2ccc3c(N)ncnn23)[C@H](O)[C@@H]1O)Oc1ccccc1`, about 4.68 µM.
The same measure, in the same setting: under `CCn1cc(-c2ccnc3[nH]c(-c4cccc(CN(C)C)c4)cc23)c(-c2ccc(NC(=O)N(C)C)cc2)n1` [GSK-1070916] stands over 100 µM.
Take `CN(C)CC/C=C1\c2ccccc2CSc2ccccc21` [DOTHIEPIN]: the IC50 was 16.6 µM.
On the same count and under the same terms, under `CCCCCCC(C)(C)c1cc(O)c2c(c1)OC(C)(C)[C@@H]1CC=C(C(=O)O)C[C@@H]21` [LENABASUM] stands over 100 µM; under `Cc1cc(O[C@@H](CCC(F)(F)F)c2ccc(C(=O)NCCC(=O)O)cc2)cc(C)c1-c1ccc(C(C)(C)C)cc1` [ADOMEGLIVANT], over 10 µM; under `CN1CCN(CCCN2c3ccccc3Sc3ccc(C(F)(F)F)cc32)CC1` [TRIFLUOPERAZINE], 6.46 µM.
With `CN1CCC(c2cc3cc(Cl)ccc3o2)CC1`, the IC50 is 17 µM.

Values taken from ChEMBL document CHEMBL4651402, “Screening of ~5500 FDA-approved drugs and clinical candidates for anti-SARS-CoV-2 activity” (2021).
